Assay results from the supplement of paper PMC10307832.

Columns and labels:
ALW-II-49-7 = compound: Cc1ccc(C(=O)Nc2cccc(C(F)(F)F)c2)cc1Nc1cncc(C(N)=O)c1 [ALW-II-49-7]; experiment: relative viability (nuclei count vs DMSO), 5 days (fraction); higher = more cells survive
How it was run: (§1)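 For viability, nuclei in each treated well were divided by nuclei in vehicle wells and the median across plates was taken. Lung cancer cell lines in 1536-well plates were pinned with five library-drug doses (not always all listed) spaced by √10, cultured 5 days without medium change, and imaged at 4× after Hoechst staining, with plates passing only at control CV below 25% and at least one doubling.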

Dasatinib = compound: Cc1nc(Nc2ncc(C(=O)Nc3c(C)cccc3Cl)s2)cc(N2CCN(CCO)CC2)n1 [Dasatinib]; experiment: as above
How it was run: as §1

| Cell Line | relative viability (ALW-II-49-7; 0.08 µM) | relative viability (ALW-II-49-7; 0.253 µM) | relative viability (ALW-II-49-7; 0.8 µM) | relative viability (ALW-II-49-7; 2.53 µM) | relative viability (ALW-II-49-7; 8 µM) | relative viability (Dasatinib; 0.005 µM) | relative viability (Dasatinib; 0.01581 µM) | relative viability (Dasatinib; 0.05 µM) | relative viability (Dasatinib; 0.075 µM, anchor plate) | relative viability (Dasatinib; 0.1581 µM) | relative viability (Dasatinib; 0.5 µM) |
| --- | --- | --- | --- | --- | --- | --- | --- | --- | --- | --- | --- |
| NCI-H2009 | 0.967 | 1.04 | 0.93 | 0.844 | 0.709 | 1.07 | 0.988 | 0.929 | 0.303 | 0.456 | 0.236 |
| NCI-H2023 | 0.965 | 0.963 | 0.995 | 0.96 | 0.911 | 0.883 | 0.888 | 0.735 | 0.592 | 0.648 | 0.593 |
| NCI-H2085 | 1.01 | 1.05 | 0.985 | 1.03 | 0.995 | 0.981 | 0.904 | 0.804 | 0.255 | 0.356 | 0.218 |
| NCI-H2087 | 1.07 | 1.01 | 1.06 | 1.02 | 0.915 | 1.02 | 0.941 | 1.23 | 0.856 | 0.937 | 0.453 |
| NCI-H2126 | 0.918 | 1.03 | 1.02 | 0.926 | 0.992 | 0.98 | 0.864 | 0.945 | 0.643 | 0.814 | 0.403 |
| NCI-H2170 | 1 | 0.969 | 0.973 | 0.908 | 0.966 | 0.961 | 0.914 | 0.784 | 0.61 | 0.585 | 0.378 |
| NCI-H2228 | 1.09 | 0.783 | 0.735 | 0.904 | 0.85 | 0.994 | 0.869 | 0.94 | 0.535 | 0.645 | 0.442 |
| NCI-H2342 | 0.866 | 1.04 | 0.98 | 0.925 | 0.951 | 0.967 | 0.632 | 0.834 | 0.311 | 0.535 | 0.309 |
| NCI-H2347 | 1.05 | 0.968 | 1.04 | 0.973 | 0.949 | 0.913 | 0.838 | 0.659 | 0.314 | 0.452 | 0.333 |
| NCI-H2405 | 1.01 | 1.06 | 0.961 | 0.963 | 0.802 | 0.842 | 0.726 | 0.533 | 0.205 | 0.305 | 0.222 |
| NCI-H3122 | 1.05 | 0.868 | 1.06 | 1.05 | 1.07 | 1.02 | 1.04 | 1.06 | 0.766 | 1.01 | 0.87 |
| PC-3 [JPC-3] | 1.08 | 1.04 | 1.04 | 1.13 | 0.971 | 1.08 | 1.01 | 1.04 | 0.971 | 1.02 | 0.59 |
| PC-14 | 0.933 | 0.98 | 0.95 | 0.961 | 0.898 | 1.12 | 0.98 | 0.877 | 0.264 | 0.65 | 0.234 |
| RERF-LC-KJ | 1.02 | 1.06 | 0.997 | 0.911 | 0.939 | 1.01 | 0.928 | 0.944 | 0.781 | 0.841 | 0.704 |
| SK-LU-1 | 1.04 | 1.11 | 1.07 | 0.769 | 0.746 | 0.823 | 0.542 | 0.42 | 0.174 | 0.312 | 0.25 |
| SK-MES-1 | 0.957 | 0.97 | 0.963 | 0.851 | 0.742 | 1.05 | 0.922 | 0.964 | 0.385 | 0.61 | 0.215 |
| SW 900 | 0.826 | 0.975 | 0.736 | 1.03 | 0.622 | 0.67 | 0.733 | 0.647 | 0.701 | 0.405 | 0.254 |
| SW 1573 | 0.976 | 1.12 | 1.04 | 1.05 | 0.938 | 0.931 | 0.915 | 0.839 | 0.517 | 0.672 | 0.564 |
